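Tested at 5 concentrations; 48 h exposure; 96-well plates; endpoints linearly interpolated, else capped at highest concentration. Here, GI50 denotes the concentration required for 50% inhibition of growth.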 Calls of active or inactive are those of the source. Rule as the data show it: active = GI50 up to about 1.1 µM and inactive = higher.
Key:
Experiment in all cases: NCI-60 cell line screen, 48 h
HCC 2998 = system: HCC 2998
Malme-3M = system: Malme-3M
MOLT-4 = system: MOLT-4
RPMI-8226 = system: RPMI-8226
LXFL 529 = system: LXFL 529
DLD-1 = system: DLD-1
OVCAR-3 = system: OVCAR-3
SF-539 = system: SF-539
U-251 = system: U-251
HCT-15 = system: HCT-15
SNB-78 = system: SNB-78
EKVX = system: EKVX
CCRF-CEM = system: CCRF-CEM
NCI-H522 = system: NCI-H522
786-0 = system: 786-0
HOP-18 = system: HOP-18
KM12 = system: KM12
HOP-92 = system: HOP-92
SF-295 = system: SF-295
LOX IMVI = system: LOX IMVI
SNB-19 = system: SNB-19
UACC-62 = system: UACC-62
SF-268 = system: SF-268
A498 = system: A498
OVCAR-4 = system: OVCAR-4
TK-10 = system: TK-10
UO-31 = system: UO-31
RXF 631 = system: RXF 631
DMS-273 = system: DMS-273
SK-OV-3 = system: SK-OV-3
OVCAR-5 = system: OVCAR-5
K562 = system: K562
SNB-75 = system: SNB-75
A549 = system: A549
SK-MEL-5 = system: SK-MEL-5
NCI-H460 = system: NCI-H460
SK-MEL-2 = system: SK-MEL-2
XF498 = system: XF498
HCT-116 = system: HCT-116
HT-29 = system: HT-29
NCI-H226 = system: NCI-H226
KM-20L2 = system: KM-20L2
SR = system: SR
HL-60 = system: HL-60
HOP-62 = system: HOP-62
SN12C = system: SN12C
COLO 205 = system: COLO 205
RXF 393 = system: RXF 393
ACHN = system: ACHN
M14 = system: M14
NCI-H23 = system: NCI-H23
IGROV-1 = system: IGROV-1
OVCAR-8 = system: OVCAR-8
DMS-114 = system: DMS-114
SW-620 = system: SW-620
CAKI-1 = system: CAKI-1
SK-MEL-28 = system: SK-MEL-28
UACC-257 = system: UACC-257
M19-MEL = system: M19-MEL

CC(C)C(=O)NC(=S)Nc1ccc([N+](=O)[O-])cc1C#N
GI50 (HCC 2998): > 100 µM (inactive)
GI50 (Malme-3M): > 100 µM (inactive)
GI50 (MOLT-4): > 100 µM (inactive)
GI50 (RPMI-8226): > 100 µM (inactive)
GI50 (LXFL 529): > 100 µM (inactive)
GI50 (DLD-1): > 100 µM (inactive)
GI50 (OVCAR-3): > 100 µM (inactive)
GI50 (SF-539): > 100 µM (inactive)
GI50 (U-251): > 100 µM (inactive)
GI50 (HCT-15): > 100 µM
GI50 (SNB-78): > 100 µM (inactive)
GI50 (EKVX): 63.8 µM (inactive)
GI50 (CCRF-CEM): > 100 µM (inactive)
GI50 (NCI-H522): > 100 µM (inactive)
GI50 (786-0): > 100 µM (inactive)
GI50 (HOP-18): > 100 µM (inactive)
GI50 (KM12): > 100 µM (inactive)
GI50 (HOP-92): > 100 µM (inactive)
GI50 (SF-295): > 100 µM (inactive)
GI50 (LOX IMVI): > 100 µM (inactive)
GI50 (SNB-19): > 100 µM (inactive)
GI50 (UACC-62): > 100 µM (inactive)
GI50 (SF-268): > 100 µM (inactive)
GI50 (A498): > 100 µM (inactive)
GI50 (OVCAR-4): > 100 µM (inactive)
GI50 (TK-10): > 100 µM (inactive)
GI50 (UO-31): > 100 µM (inactive)
GI50 (RXF 631): 99.1 µM (inactive)
GI50 (DMS-273): > 100 µM (inactive)
GI50 (SK-OV-3): > 100 µM (inactive)
GI50 (OVCAR-5): > 100 µM (inactive)
GI50 (K562): > 100 µM (inactive)
GI50 (SNB-75): 16.7 µM (inactive)
GI50 (A549): > 100 µM (inactive)
GI50 (SK-MEL-5): > 100 µM (inactive)
GI50 (NCI-H460): > 100 µM (inactive)
GI50 (SK-MEL-2): > 100 µM (inactive)
GI50 (XF498): > 100 µM (inactive)
GI50 (HCT-116): > 100 µM (inactive)
GI50 (HT-29): > 100 µM (inactive)
GI50 (NCI-H226): 25.1 µM (inactive)
GI50 (KM-20L2): > 100 µM (inactive)
GI50 (SR): > 100 µM (inactive)
GI50 (HL-60): > 100 µM (inactive)
GI50 (HOP-62): > 100 µM (inactive)
GI50 (SN12C): 22 µM (inactive)
GI50 (COLO 205): 16.8 µM (inactive)
GI50 (RXF 393): > 100 µM (inactive)
GI50 (ACHN): > 100 µM (inactive)
GI50 (M14): > 100 µM (inactive)
GI50 (NCI-H23): > 100 µM (inactive)
GI50 (IGROV-1): > 100 µM (inactive)
GI50 (OVCAR-8): > 100 µM (inactive)
GI50 (DMS-114): > 100 µM (inactive)
GI50 (SW-620): > 100 µM (inactive)
GI50 (CAKI-1): 66.2 µM (inactive)
GI50 (SK-MEL-28): > 100 µM (inactive)
GI50 (UACC-257): > 100 µM (inactive)
GI50 (M19-MEL): > 100 µM (inactive)

C/C(=N\NC(N)=S)c1ccc(C)c(C)c1
GI50 (HCC 2998): 51.6 µM (inactive)
GI50 (Malme-3M): 33.3 µM (inactive)
GI50 (MOLT-4): 15.8 µM (inactive)
GI50 (RPMI-8226): 34.5 µM (inactive)
GI50 (LXFL 529): 19.4 µM (inactive)
GI50 (DLD-1): 30.9 µM (inactive)
GI50 (OVCAR-3): 22.8 µM (inactive)
GI50 (SF-539): 19.9 µM (inactive)
GI50 (U-251): 88.9 µM (inactive)
GI50 (HCT-15): 58.5 µM
GI50 (SNB-78): > 100 µM (inactive)
GI50 (EKVX): 3.31 µM (inactive)
GI50 (CCRF-CEM): 28.1 µM (inactive)
GI50 (786-0): 44.6 µM (inactive)
GI50 (HOP-18): 30.6 µM (inactive)
GI50 (KM12): 44.5 µM (inactive)
GI50 (HOP-92): 93.3 µM (inactive)
GI50 (SF-295): 48.8 µM (inactive)
GI50 (LOX IMVI): > 100 µM (inactive)
GI50 (UACC-62): 28.4 µM (inactive)
GI50 (SF-268): > 100 µM (inactive)
GI50 (A498): 66.7 µM (inactive)
GI50 (OVCAR-4): 23.9 µM (inactive)
GI50 (TK-10): 53.5 µM (inactive)
GI50 (UO-31): 52.1 µM (inactive)
GI50 (RXF 631): 75.3 µM (inactive)
GI50 (DMS-273): > 100 µM (inactive)
GI50 (SK-OV-3): 75.7 µM (inactive)
GI50 (OVCAR-5): 29.1 µM (inactive)
GI50 (K562): 36.6 µM (inactive)
GI50 (SNB-75): 40.3 µM (inactive)
GI50 (A549): 65.8 µM (inactive)
GI50 (SK-MEL-5): 69.2 µM (inactive)
GI50 (NCI-H460): 59.3 µM (inactive)
GI50 (SK-MEL-2): 45 µM (inactive)
GI50 (XF498): 19.4 µM (inactive)
GI50 (HCT-116): > 100 µM (inactive)
GI50 (HT-29): 19.4 µM (inactive)
GI50 (NCI-H226): 51.2 µM (inactive)
GI50 (KM-20L2): 44.7 µM (inactive)
GI50 (SR): 68.9 µM (inactive)
GI50 (HL-60): 15.1 µM (inactive)
GI50 (HOP-62): > 100 µM (inactive)
GI50 (SN12C): 49.9 µM (inactive)
GI50 (COLO 205): 26.9 µM (inactive)
GI50 (RXF 393): 23 µM (inactive)
GI50 (ACHN): 59.2 µM (inactive)
GI50 (M14): 41.7 µM (inactive)
GI50 (NCI-H23): 85.7 µM (inactive)
GI50 (IGROV-1): 25.4 µM (inactive)
GI50 (OVCAR-8): 66.2 µM (inactive)
GI50 (DMS-114): 16.6 µM (inactive)
GI50 (SW-620): 52.8 µM (inactive)
GI50 (CAKI-1): 92.5 µM (inactive)
GI50 (SK-MEL-28): > 100 µM (inactive)
GI50 (UACC-257): 44.2 µM (inactive)
GI50 (M19-MEL): 35.7 µM (inactive)

— ChEMBL document CHEMBL1201862, “PubChem BioAssay data set” (2004)
